{"source": "patent US20220142995A1", "about": "“DUAL ATM AND DNA-PK INHIBITORS FOR USE IN ANTI-TUMOR THERAPY” (XRAD Therapeutics, Inc., priority 2019, published 2022)", "key": {"[1]": {"system": "pDNA-PK/DNA-PK in FADU tumors", "test": "Pharmacodynamic assay, pDNA-PK/DNA-PK in FADU tumors", "type": "in vivo, mice", "details": "for pDNA-PK/DNA-PK: FADU tumors", "from_the_text": "(§1) Tumor Studies. Female NCr nu/nu mice (Crl:NU(NCr)-Foxn1 nu, Strain 490) were obtained from Charles River at 5-6 weeks of age. All animal procedures used in these studies were approved by the Institutional Animal Care and Use Committee (IACUC) at Duke University.\n(§2) FADU or MDA-MB-231 cells were harvested during log phase growth for in vivo implantation. The resuspended cells were washed three times in phosphate buffered saline (PBS) before preparing the working dilution in PBS. FADU cells were diluted to 1×10^7 cells/mL and MDA-MB-231 cells were diluted to 5×10^7 cells/mL. Each mouse was injected subcutaneously in the right flank with 100 μL of the cellular suspension. Tumor growth was monitored until the tumors reached a target volume of at least 100 mm^3, at which point mice were randomly stratified into four treatment groups.\n(§3) The vehicle used in this study was 0.5% (Hydroxypropyl)methyl cellulose (HPMC) and 0.2% Tween80 dissolved in deionized water. The pH of the vehicle was adjusted to 7.0-8.0 and the vehicle was stored at 4° C. On each day of in vivo treatment an appropriate mass of test compound was added to the vehicle at room temperature. The mixture was vortexed as necessary to generate a final concentration of 1.6 mg/mL.\n(§4) Pharmacodynamic (PD) assays. Tumor studies were performed as follows. Mice bearing FADU or MDA-231 tumors were pre-dosed with vehicle alone or compound 569 alone at 3, 6, and 10 mg/kg. Tumors were then irradiated with 10 Gy 45 min after vehicle or compound 569 administration or left unirradiated (vehicle and compound 569 at 10 mg/kg). Tumors were harvested 1 h post radiation.\n(§5) Tissue homogenates for pharmacodynamic analyses were collected and processed as follows. Tumor tissues from FADU or MDA-MB-231 tumors were flash frozen in liquid nitrogen and pulverized on dry ice using a tissue pulverizer. A portion of the tumor powder was transferred into a microtube, followed by addition of 500 μL of RIPA buffer [[…], pH 8.0, 150 mM NaCl, 0.1% SDS, 0.5% sodium deoxycholate, 1% IGEPAL® CA-630 (Sigma, 18896)]. To 10 ml of RIPA buffer, 2 tablets each of Protease inhibitor and Phosphatase inhibitor (Roche, #04693159001 & #04906837001), 200 μL of 0.1 M PMSF and 160 μL of Aprotinin, (Sigma, A6279) were added. The suspension was homogenized on ice with a pellet pestle motor (KONTES) and incubated on ice for 30 minutes. Cell lysates were centrifuged at 13,200 rpm for 15 min at 4° C. and supernatants were transferred to a new tube and analyzed for protein concentration with a BCA kit (Pierce, 23227), followed by immunoblotting."}, "[2]": {"system": "pKAP1/KAP1 in MDA-231 tumors", "test": "Pharmacodynamic assay, pKAP1/KAP1 in MDA-231 tumors", "type": "in vivo, mice", "from_the_text": "as §1, §2, §3, §4, §5"}, "[3]": {"system": "FADU subcutaneous human xenograft", "test": "In vivo tumor growth delay study, FADU subcutaneous human xenograft mouse model", "from_the_text": "as §1, §2\nFollowing implantation of the tumor cell lines, mice were monitored once weekly for tumor development. Upon detection, tumors were measured in two dimensions using digital calipers. Tumors were treated after reaching at least 100 mm^3 and were measured two to three times weekly following enrollment in one of the treatment groups. The study endpoint was defined as tumor quintupling from the volume at time of treatment.\nThe vehicle used in this study was 0.5% (Hydroxypropyl)methyl cellulose (HPMC) and 0.2% Tween80 dissolved in deionized water. The pH of the vehicle was adjusted to 7.0-8.0 and the vehicle was stored at 4° C. […]\nIn vivo tumor growth delay study was performed as follows. Following implantation of the tumor cell lines, mice were monitored once weekly for tumor development. […]\nStatistical and Graphical Analysis of the in vivo data. […] In order to adjust for the differing tumor sizes at the start of treatment, the relative tumor volume was calculated by dividing the tumor volume at each time point by the volume at baseline. […] When an animal exited the study due to tumor quintupling, the final tumor volume recorded for the animal was included with the data used to calculate the median volume at subsequent time points. […]"}, "[4]": {"details": "10 Gy, 3 mg/kg oral, harvested 1 h post radiation"}, "[5]": {"details": "10 Gy, 6 mg/kg oral, harvested 1 h post radiation"}, "[6]": {"details": "10 Gy, 10 mg/kg oral, harvested 1 h post radiation"}}, "data": [{"smiles": "CC(C)NCCOc1ncc(-c2cc3c4c(cnc3cc2F)N(C)C(=O)C42CCC2)cc1NS(C)(=O)=O", "note": "[Compound 569, N-(5-(7′-Fluoro-3′-methyl-2′-oxo-2′,3′-dihydrospiro[cyclobutane-1,1′-pyrrolo[2,3-c]quinolin]-8′-yl)-2-(2-(isopropylamino)ethoxy)pyridin-3-yl)methanesulfonamide]", "values": [{"measurement": "inhibition of radiation-induced DNA-PK autophosphorylation and KAP1 phosphorylation in tumors", "setting": "[1]; FADU and MDA231 tumors, 10 Gy, 3, 6 and 10 mg/kg oral", "result": "dose-dependent inhibition"}, {"measurement": "pDNA-PK/DNA-PK", "setting": "[1]; [4]", "result": 0.938}, {"measurement": "pDNA-PK/DNA-PK", "setting": "[1]; [5]", "result": 0.658}, {"measurement": "pDNA-PK/DNA-PK", "setting": "[1]; [6]", "result": 0.476}, {"measurement": "pDNA-PK/DNA-PK", "setting": "[1]; no radiation, 10 mg/kg oral", "result": 0.343}, {"measurement": "inhibition at 10 mg/kg", "setting": "[1]; Mus musculus, FADU and MDA231 tumors (FIGS. 4 and 5, Tables 2-5), 10 Gy, 10 mg/kg, read-out: inhibition of tumor levels of radiation-induced autophosphorylation of DNA-PK", "result": "~55", "unit": "%"}, {"measurement": "basal phosphorylation of DNA-PK in tumors", "setting": "[1]; unirradiated tumors, 10 mg/kg", "result": "inhibited"}, {"measurement": "pKAP1/KAP1", "setting": "[2]; [4]", "result": 0.327}, {"measurement": "pKAP1/KAP1", "setting": "[2]; [5]", "result": 0.0130}, {"measurement": "pKAP1/KAP1", "setting": "[2]; [6]", "result": 0.00901}, {"measurement": "pKAP1/KAP1", "setting": "[2]; no radiation, 10 mg/kg oral", "result": "−0.00319"}, {"measurement": "tumor growth curves and quintupling-free survival", "setting": "[3]; FADU, Group 2 (10 mg/kg qd×3 alone) versus Group 1 (vehicle)", "result": "nearly identical to those for Group 1"}, {"measurement": "overall survival compared to Group 1, Group 2 and Group 3", "setting": "[3]; FADU, Group 4: 10 mg/kg + 3 Gy qd×3, P<0.01, logrank", "result": "significantly improved"}, {"measurement": "tolerability", "setting": "[3]; FADU-bearing mice, 10 mg/kg qd×3 alone or with 3 Gy", "result": "well-tolerated"}]}]}
